Test results as given in US5192791A, “Fused ring heterocycles and pharmaceutical compositions containing same” (Biofor, Ltd., priority 1990, dated 1993).

What was measured:
[1] = tested on: Mycobacterium butyricum adjuvant arthritis, hind paw edema; experiment: Adjuvant Arthritis Assay: Developing (hind paw edema, rats); format: in vivo, female Lewis rats; details: 96 h, dosed once daily for 4 days in 0.25% methylcellulose, paw edema on fifth day
Method: Anti-Inflammatory: This activity was evaluated via a modification of the Adjuvant Arthritis Assay (AA) described by S. […] This assay measures the ability of the test compound to antagonize local edema, a characteristic of the inflammatory response. […] The left and right rear paws of female Lewis rats (Charles River Laboratories) weighing 160-180 grams each were measured by mercury displacement prior to injection (Day Zero). Adjuvant arthritis was induced in this rat colony by subcutaneous injection of Mycobacterium butyricum (0.75 mg in 0.1 ml light mineral oil, Fisher) using an automated Cornwall syringe. On days 11-15 post-adjuvant the injected animals with 0.25 to 0.75 ml. paw edema were selected and distributed evenly, according to edema size, into control and experimental groups of ten rats each. Vehicle control and drug treatments were assigned to the groups at random. The assay was performed using a variable dose level for each test compound per kilogram per day in 0.25% methylcellulose vehicle. All animals were dosed once daily for 4 days and on the fifth day both hind paw volumes were again measured using mercury displacement. The hind paw edema was determined for each rat by subtracting the hind paw volume measured on Day Zero from the hind paw volume measured on the fifth day of the study. Group means were determined and the drug effect was calculated as percent inhibition of the hind paw edema according to the following equation: [formula] […] The known anti-inflammatory NAPROXEN was also tested for comparison purposes.

yeast-induced fever = experiment: Antipyretic Evaluation (yeast-induced fever in rats); format: in vivo, male Sprague-Dawley rats; details: 300 mg/kg, oral, 19 hours after yeast; temperature one hour after dosing
Method: Antipyretic: This activity was evaluated by creating a yeast-induced fever in rats according to a modified method of the procedure described by Loux et al in "Toxicology and Applied Pharmacology", Vol. 22: page 672 (1972). In this assay rats injected with yeast in distilled water were dosed with test compounds, aspirin (positive control) and a vehicle (negative control) and the observed differences in body temperature were analyzed statistically.
Antipyretic activity was evaluated using a modification of the test described by Loux et al, in Toxicology and Applied Pharmacology, 22:672 (1972), that is, yeast-induced fever in rats. Each test group consisted of ten male Sprague-Dawley rats (Charles River Laboratories), weighing 180-225 grams each. Eighteen hours prior to compound administration the rats were weighed and body temperatures were recorded. Food was removed with water available ad libitum. […]
Test compounds suspended in 0.25% methylcellulose (0.25% MC) or olive oil were administered orally by gavage nineteen hours following the yeast injection. Body temperatures were taken and recorded one hour after compound administration. […] The mean temperature of the compound-treated groups, positive control group (Aspirin) and negative control group (vehicle) were calculated at 18 hours and 20 hours. The data was analyzed statistically using a paired-samples Student's t-Test.

[2] = tested on: Mycobacterium butyricum adjuvant arthritis, hind paw edema; experiment: Adjuvant Arthritis Assay; Immunomodulatory; format: in vivo, Lewis female rats; details: 50 mg/kg, oral, Day 5 to 9; edema on Day 15
Method: Immunomodulatory: This activity was determined by using a Modified Adjuvant Assay procedure in which female rats were injected with Mycobacterium butyricum to induce hind paw edema. The test compounds were administered orally and the difference in volume between dosed and non-dosed paws was determined.
Lewis female rats were injected in the tail subcutaneously with Mycobacterium butyricum (0.75 mg in 0.1 ml light mineral oil, Fisher) on Day Zero. Prior to injection the volumes of the left and right rear paws were measured by mercury displacement. All rats were dosed orally with vehicle or test compounds on Day 5 to 9 inclusive. The volume of both hind paws were determined on Day 15 and the percent inhibitions were calculated based upon average edema on Day 15 relative to the edema mean in the control group.

## CC(C)(C)c1cc(N2CCCCC2=O)cc(C(C)(C)C)c1O [Example 2, 1-(3,5-di-tert-butyl-4-hydroxyphenyl)piperidin-2-one]
[1]
  ED50: 34 mg/kg

## CC(=O)Oc1ccccc1C(=O)O [Aspirin, reference compound]
yeast-induced fever
  Change in Temperature, 18-20 Hour Period: -2.05 °C

## COc1ccc2cc([C@H](C)C(=O)O)ccc2c1 [NAPROXEN, reference compound]
[1]
  ED50: 28 mg/kg

## CC(C)(C)c1cc(N2CCCC2=O)cc(C(C)(C)C)c1O [Example 1, 1-(3,5-di-tert-butyl-4-hydroxyphenyl)pyrrolidin-2-one]
yeast-induced fever
  Change in Temperature, 18-20 Hour Period: -1.55 °C
[2]
  % Inhibition: 39%
[1]
  ED50: 21 mg/kg
